According to US20250332300A1 (priority 2024, published 2025):
Structures can show the parent of a compound that is named as a salt. Where two headings read alike, the source gives them in different places. Starred links: 1 amine or outer side, 2 acyl side, 3 side chain; linkers in the order of their positions; H or OH if unused. Positions of bridges follow the written chain, without caps; N, C: chain ends. Non-standard residues stand in square brackets, D forms with d. Residues, ends and D or L forms follow the SMILES beside them. Nle(4-yne,6-yl) = O=C([C@H](CC#CC[*:3])N[*:1])[*:2]; Trp(5-OH) = N[C@@H](Cc1c[nH]c2ccc(O)cc12)C(=O)O; NMePhe(4-F) = CN[C@@H](Cc1ccc(F)cc1)C(=O)O; NMehPhe = CN[C@@H](CCc1ccccc1)C(=O)O; X3 = NC[C@H](CCC(=O)[*:2])C(=O)[*:1]; Aad = N[C@@H](CCCC(=O)O)C(=O)O; Gly(cPr) = N[C@H](C(=O)O)C1CC1; NMeD = CN[C@@H](CC(=O)O)C(=O)O; Ahp(2) = CCCCC[C@H](N)C(=O)O; NMeK = CN[C@@H](CCCCN)C(=O)O; NMeDap = CN[C@@H](CN)C(=O)O; 3Amb = NCc1cccc(C(=O)O)c1; NMeC = CN[C@@H](CS)C(=O)O; NMeS = CN[C@@H](CO)C(=O)O

Tests used:
Assay type in all cases: binding
mouse HER2 (23-653) [1] = target: T1, mouse HER2 (23-653) (Mus musculus, UniProt P70424); test: TR-FRET competition assay for peptide potency, mouse HER2; set-up: mouse HER2 (23-653) using a Cy5 labeled peptide as a probe; made in house; host or cells: mammalian cells; settings: 0.1 nM mouse HER2, 24 h incubation
mouse HER2 (23-653) [2] = target: T1, mouse HER2 (23-653); test: Surface plasmon resonance (SPR) for assessment of peptide affinity, mouse HER2; set-up: mouse HER2 (23-653) using a Cy5 labeled peptide as a probe; made in house
Source text: Each protein was immobilized either onto a SA sensorchip (Cytiva, BR-1005-31) or CM5 sensorchip (Cytiva, BR-1005-30) to a density of 800-2000 RU.

human HER2 (23-652) [3] = target: T2, human HER2 (23-652) (Homo sapiens, UniProt P04626); test: TR-FRET competition assay for peptide potency, human HER2; set-up: towards human HER2 (23-652) and mouse HER2 (23-653); made in house; host or cells: mammalian cells
human HER2 (23-652) [4] = target: T2, human HER2 (23-652); test: Surface plasmon resonance (SPR) for assessment of peptide affinity, human HER2; set-up: towards human HER2 (23-652) and mouse HER2 (23-653); made in house
Method in brief: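 Binding kinetics fitted from sensorgrams with 280 s peptide association then 3000 s dissociation (30 uL/min), using HER2 (23-652) either directly immobilized (SA/CM5) or anti-Fc-captured; 3 M magnesium chloride used for regeneration.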

[5] = moHER2 TR-FRET IC50, TR-FRET competition with Cy5 labeled peptide probe
[6] = huHER2 TR-FRET IC50, TR-FRET competition with Cy5 labeled peptide probe, 0.1 nM human HER2, 24 h incubation
[7] = TR-FRET competition with Cy5 labeled peptide probe, read-out: moHER2 TR-FRET IC50
[8] = SPR, mouse HER2 extracellular domain, 25° C., 1:1 binding model, read-out: moHER2-SPR-ONC KD
[9] = SPR, human HER2 extracellular domain, 25° C., 1:1 binding model, read-out: huHER2-SPR-ONC KD

Row | IC50 (mouse HER2 (23-653) [1]; [7]) [nM] | Kd (mouse HER2 (23-653) [2]; [8]) [nM] | IC50 (human HER2 (23-652) [3]; read-out: huHER2 TR-FRET IC50) [nM] | Kd (human HER2 (23-652) [4]; [9]) [nM] | SMILES | IC50 (mouse HER2 (23-653) [1]; [5]) [nM] | Kd (mouse HER2 (23-653) [2]) [nM] | IC50 (human HER2 (23-652) [3]; [6]) [nM] | Kd (human HER2 (23-652) [4]) [nM] | IC50 (human HER2 (23-652) [3]; huHER2 TR-FRET IC50, recalculated value achieved after further repetition, value in parentheses (**): recalculated after further repetition) [nM]
1 |  |  |  |  | COCCOCCOCCOCCOCCOCCOCCOCCOCCOCCOCCOCCC(=O)N[C@H]1CCCC(=O)NC[C@@H](C(=O)N(C)[C@@H](Cc2ccc(F)cc2)C(=O)N[C@@H](CCCCNC(=O)c2ccc([N+](C)(C)C)nc2)C(N)=O)N(C)C(=O)[C@H](C2CC2)NC(=O)[C@H](Cc2c[nH]c3ccccc23)NC(=O)[C@H](Cc2c[nH]c3ccc(O)cc23)NC(=O)[C@H](CCCCNC(C)=O)N(C)C(=O)[C@H](CCc2ccccc2)N(C)C(=O)[C@H](CO)NC(=O)[C@H](Cc2ccc(O)cc2)NC1=O [Example F4, TFA salt] | 0.3 | 0.1 | < 0.1 | < 0.1 | 
2 | > 1000 | 5080 | > 1000 | 2810 | CN1C(=O)[C@H](CO)NC(=O)[C@H](Cc2ccc(O)cc2)NC(=O)c2cccc(c2)CNC(=O)C[C@@H](C(=O)N(C)[C@@H](Cc2ccc(F)cc2)C(N)=O)N(C)C(=O)[C@H](C2CC2)NC(=O)[C@H](Cc2c[nH]c3ccccc23)NC(=O)[C@H](Cc2c[nH]c3ccc(O)cc23)NC(=O)[C@H](CO)N(C)C(=O)[C@@H]1CCc1ccccc1 [Example A24, (4S,7S,10S,13S,16S,19S,22S,25S)-19-((1H-indol-3-yl)methyl)-N-((S)-1-amino-3-(4-fluorophenyl)-1-oxopropan-2-yl)-22-cyclopropyl-16-((5-hydroxy-1H-indol-3-yl)methyl)-4-(4-hydroxybenzyl)-7,13-bis(hydroxymethyl)-N,9,12,24-tetramethyl-2,5,8,11,14,17,20,23,27-nonaoxo-10-phenethyl-3,6,9,12,15,18,21,24,28-nonaaza-1(1,3)-benzenacyclononacosaphane-25-carboxamide] ([3Amb]YS[NMehPhe][NMeS][Trp(5-OH)]W[Gly(cPr)][NMeD][NMePhe(4-F)]-NH2; lactam N-9) |  |  |  |  | 
3 |  |  |  |  | CN1C(=O)[C@H](CO)NC(=O)[C@H](Cc2ccc(O)cc2)NC(=O)[C@H](CN)CCC(=O)NC[C@@H](C(=O)N(C)[C@@H](Cc2ccc(F)cc2)C(N)=O)N(C)C(=O)[C@H](C2CC2)NC(=O)[C@H](Cc2c[nH]c3ccccc23)NC(=O)[C@H](Cc2c[nH]c3ccc(O)cc23)NC(=O)[C@H](CO)N(C)C(=O)[C@@H]1CCc1ccccc1 [Example A39, (3S,6S,9S,12S,15S,18S,21S,24S,27S)-9-((1H-indol-3-yl)methyl)-N-((S)-1-amino-3-(4-fluorophenyl)-1-oxopropan-2-yl)-27-(aminomethyl)-6-cyclopropyl-12-((5-hydroxy-1H-indol-3-yl)methyl)-24-(4-hydroxybenzyl)-15,21-bis(hydroxymethyl)-N,4,16,19-tetramethyl-5,8,11,14,17,20,23,26,30-nonaoxo-18-phenethyl-1,4,7,10,13,16,19,22,25-nonaazacyclotriacontane-3-carboxamide TFA salt] (YS[NMehPhe][NMeS][Trp(5-OH)]W[Gly(cPr)][NMeDap][NMePhe(4-F)]-NH2; linker N-8 via X3) | 436 | 162 | 129 | 148 | 
4 | > 1000 | > 6000 | > 1000 | > 6000 | CCCCC[C@@H]1NC(=O)[C@H](Cc2c[nH]c3ccc(O)cc23)NC(=O)[C@H](CCCCNC(C)=O)N(C)C(=O)[C@H](CCc2ccccc2)N(C)C(=O)[C@H](CO)NC(=O)[C@H](Cc2ccc(O)cc2)NC(=O)[C@@H](NC(C)=O)CCCC(=O)NC[C@@H](C(=O)N(C)[C@@H](Cc2ccc(F)cc2)C(N)=O)N(C)C(=O)[C@H](C2CC2)NC1=O [Example A17, (3S,6S,9S,12S,15S,18S,21S,24S,27S)-27-acetamido-15-(4-acetamidobutyl)-N-((S)-1-amino-3-(4-fluorophenyl)-1-oxopropan-2-yl)-6-cyclopropyl-12-((5-hydroxy-1H-indol-3-yl)methyl)-24-(4-hydroxybenzyl)-21-(hydroxymethyl)-N,4,16,19-tetramethyl-5,8,11,14,17,20,23,26,31-nonaoxo-9-pentyl-18-phenethyl-1,4,7,10,13,16,19,22,25-nonaazacyclohentriacontane-3-carboxamide] (Ac-[Aad]YS[NMehPhe][NMeK](Ac)[Trp(5-OH)][Ahp(2)][Gly(cPr)][NMeDap][NMePhe(4-F)]-NH2; lactam 1-9) |  |  |  |  | 
5 | > 1000 | > 6000 | > 900 | > 6000 | CC(=O)NCCCC[C@H]1C(=O)N[C@@H](Cc2c[nH]c3ccc(O)cc23)C(=O)N[C@@H](C)C(=O)N[C@@H](C2CC2)C(=O)N(C)[C@H](C(=O)N(C)[C@@H](Cc2ccc(F)cc2)C(=O)N[C@@H](CCCCN)C(N)=O)CNC(=O)CCC[C@H](NC(C)=O)C(=O)N[C@@H](Cc2ccc(O)cc2)C(=O)N[C@@H](CO)C(=O)N(C)[C@@H](CCc2ccccc2)C(=O)N1C [Example A45, (3S,6S,9S,12S,15S,18S,21S,24S,27S)-27-acetamido-15-(4-acetamidobutyl)-6-cyclopropyl-N-((S)-1-(((S)-1,6-diamino-1-oxohexan-2-y1)amino)-3-(4-fluorophenyl)-1-oxopropan-2-y1)-12-((5-hydroxy-1H-indol-3-yl)methyl)-24-(4-hydroxybenzyl)-21-(hydroxymethyl)-N,4,9,16,19-pentamethyl-5,8,11,14,17,20,23,26,31-nonaoxo-18-phenethyl-1,4,7,10,13,16,19,22,25-nonaazacyclohentriacontane-3-carboxamide TFA salt] (Ac-[Aad]YS[NMehPhe][NMeK](Ac)[Trp(5-OH)]A[Gly(cPr)][NMeDap][NMePhe(4-F)]K-NH2; lactam 1-9) |  |  |  |  | 
6 | 0.3 | 0.2 | 0.3 | 0.4 | CC(=O)NCCCC[C@H]1C(=O)N[C@@H](Cc2c[nH]c3ccc(O)cc23)C(=O)N[C@@H](Cc2c[nH]c3ccccc23)C(=O)N[C@@H](C2CC2)C(=O)N(C)[C@H](C(=O)N(C)[C@@H](Cc2ccc(F)cc2)C(=O)N2CCC[C@H]2C(N)=O)CNC(=O)CCC[C@H](NC(C)=O)C(=O)N[C@@H](Cc2ccc(O)cc2)C(=O)N[C@@H](CO)C(=O)N(C)[C@@H](CCc2ccccc2)C(=O)N1C [Example A2, (3S,6S,9S,12S,15S,18S,21S,24S,27S)-9-((1H-indol-3-yl)methyl)-27-acetamido-15-(4-acetamidobutyl)-N-((S)-1-((S)-2-carbamoylpyrrolidin-1-yl)-3-(4-fluorophenyl)-1-oxopropan-2-yl)-6-cyclopropyl-12-((5-hydroxy-1H-indol-3-yl)methyl)-24-(4-hydroxybenzyl)-21-(hydroxymethyl)-N,4,16,19-tetramethyl-5,8,11,14,17,20,23,26,31-nonaoxo-18-phenethyl-1,4,7,10,13,16,19,22,25-nonaazacyclohentriacontane-3-carboxamide] |  |  |  |  | 

Row | SMILES | IC50 (mouse HER2 (23-653) [1]; [7]) [nM] | Kd (mouse HER2 (23-653) [2]; [8]) [nM] | IC50 (human HER2 (23-652) [3]; read-out: huHER2 TR-FRET IC50) [nM] | Kd (human HER2 (23-652) [4]; [9]) [nM] | IC50 (mouse HER2 (23-653) [1]; [5]) [nM] | Kd (mouse HER2 (23-653) [2]) [nM] | IC50 (human HER2 (23-652) [3]; [6]) [nM] | Kd (human HER2 (23-652) [4]) [nM] | IC50 (human HER2 (23-652) [3]; huHER2 TR-FRET IC50, recalculated value achieved after further repetition, value in parentheses (**): recalculated after further repetition) [nM]
7 | CN1C(=O)[C@H](CO)NC(=O)[C@H](Cc2ccc(O)cc2)NC(=O)[C@@H](N)CC#CCSC[C@@H](C(=O)N(C)[C@@H](Cc2ccc(F)cc2)C(N)=O)N(C)C(=O)[C@H](C2CC2)NC(=O)[C@H](Cc2c[nH]c3ccccc23)NC(=O)[C@H](Cc2c[nH]c3ccc(O)cc23)NC(=O)[C@H](CO)N(C)C(=O)[C@@H]1CCc1ccccc1 [Example A52, (3R,6S,9S,12S,15S,18S,21S,24S,27S)-9-((1H-indol-3-yl)methyl)-27-amino-N—((S)-1-amino-3-(4-fluorophenyl)-1-oxopropan-2-yl)-6-cyclopropyl-12-((5-hydroxy-1H-indol-3-yl)methyl)-24-(4-hydroxybenzyl)-15,21-bis(hydroxymethyl)-N,4,16,19-tetramethyl-5,8,11,14,17,20,23,26-octaoxo-18-phenethyl-1-thia-4,7,10,13,16,19,22,25-octaazacyclohentriacont-29-yne-3-carboxamide TFA salt] (H-[Nle(4-yne,6-yl)]YS[NMehPhe][NMeS][Trp(5-OH)]W[Gly(cPr)][NMeC][NMePhe(4-F)]-NH2; thioether 1-9) | > 1000 | 570 |  |  |  |  | 427 | 997 | 567
8 | CC(=O)N[C@H]1CCCC(=O)NC[C@@H](C(=O)N(C)[C@@H](Cc2ccc(F)cc2)C(=O)N[C@@H](CCCCNC(=O)CN2CCN(CC(=O)O)CCN(CC(=O)O)CCN(CC(=O)O)CC2)C(N)=O)N(C)C(=O)[C@H]([C@H](C)O)NC(=O)[C@H](Cc2c[nH]c3ccccc23)NC(=O)[C@H](Cc2c[nH]c3ccc(O)cc23)NC(=O)[C@H](CCCCNC(=O)CCO)N(C)C(=O)[C@H](CCc2ccccc2)N(C)C(=O)[C@H](CO)NC(=O)[C@H](Cc2ccc(O)cc2)NC1=O [Example B7] | 1.3 | 0.8 | 0.4 | 0.4 |  |  |  |  | 
